According to the NIST ThermoML archive (doi:10.1021/je301084m):

Assay: wn = mass fraction of the nth substance listed
Settings: 101 kPa, Liquid; for viscosity: Capillary tube (Ostwald / Ubbelohde) method; for mass density: Pycnometric method

O=[N+]([O-])[O-].[Li+] [lithium nitrate] + O
Settings	mass density [kg/m3]	viscosity [mPa·s]
283.15 K, w1 = 0.3	1203	2.41
293.15 K, w1 = 0.3	1199	1.902
293.15 K, w1 = 0.35	1236	2.241
293.15 K, w1 = 0.4	1274	2.791
303.15 K, w1 = 0.3	1193	1.535
303.15 K, w1 = 0.35	1231	1.85
303.15 K, w1 = 0.4	1269	2.24
303.15 K, w1 = 0.45	1314	2.87
303.15 K, w1 = 0.5	1358	3.839
303.15 K, w1 = 0.55	1405	5.357
313.15 K, w1 = 0.3	1188	1.3
313.15 K, w1 = 0.35	1225	1.552
313.15 K, w1 = 0.4	1263	1.888
313.15 K, w1 = 0.45	1307	2.363
313.15 K, w1 = 0.5	1352	3.114
313.15 K, w1 = 0.55	1398	4.299
313.15 K, w1 = 0.6	1449	6.274
323.15 K, w1 = 0.3	1179	1.112
323.15 K, w1 = 0.35	1216	1.306
323.15 K, w1 = 0.4	1257	1.58
323.15 K, w1 = 0.45	1300	1.994
323.15 K, w1 = 0.5	1346	2.543
323.15 K, w1 = 0.55	1391	3.515
323.15 K, w1 = 0.6	1440	4.961
333.15 K, w1 = 0.3	1173	0.95
333.15 K, w1 = 0.35	1210	1.134
333.15 K, w1 = 0.4	1250	1.356
333.15 K, w1 = 0.45	1293	1.7
333.15 K, w1 = 0.5	1339	2.143
333.15 K, w1 = 0.55	1384	2.926
333.15 K, w1 = 0.6	1432	4.153
333.15 K, w1 = 0.65	1494	5.721
343.15 K, w1 = 0.3	1166	0.826
343.15 K, w1 = 0.35	1203	0.985
343.15 K, w1 = 0.4	1243	1.182
343.15 K, w1 = 0.45	1286	1.479
343.15 K, w1 = 0.5	1331	1.854
343.15 K, w1 = 0.55	1376	2.493
343.15 K, w1 = 0.6	1424	3.472
343.15 K, w1 = 0.65	1486	4.764
353.15 K, w1 = 0.3	1159	0.731
353.15 K, w1 = 0.35	1196	0.864
353.15 K, w1 = 0.4	1236	1.041
353.15 K, w1 = 0.45	1279	1.302
353.15 K, w1 = 0.5	1324	1.616
353.15 K, w1 = 0.55	1369	2.158
353.15 K, w1 = 0.6	1416	2.955
353.15 K, w1 = 0.65	1479	4.02
363.15 K, w1 = 0.3	1152	0.65
363.15 K, w1 = 0.35	1189	0.773
363.15 K, w1 = 0.4	1230	0.927
363.15 K, w1 = 0.45	1272	1.149
363.15 K, w1 = 0.5	1317	1.466
363.15 K, w1 = 0.55	1361	1.882
363.15 K, w1 = 0.6	1408	2.564
363.15 K, w1 = 0.65	1472	3.394
373.15 K, w1 = 0.3	1144	0.586
373.15 K, w1 = 0.35	1181	0.7
373.15 K, w1 = 0.4	1222	0.837
373.15 K, w1 = 0.45	1265	1.034
373.15 K, w1 = 0.5	1309	1.306
373.15 K, w1 = 0.55	1353	1.693
373.15 K, w1 = 0.6	1400	2.248
373.15 K, w1 = 0.65	1464	2.953
383.15 K, w1 = 0.4	1213	0.763
383.15 K, w1 = 0.45	1258	0.938
383.15 K, w1 = 0.5	1301	1.175
383.15 K, w1 = 0.55	1346	1.505
383.15 K, w1 = 0.6	1393	1.993
383.15 K, w1 = 0.65	1456	2.615
393.15 K, w1 = 0.5	1294	–
393.15 K, w1 = 0.55	1338	1.371
393.15 K, w1 = 0.6	1385	1.785
393.15 K, w1 = 0.65	1448	2.307
403.15 K, w1 = 0.6	1377	1.625
403.15 K, w1 = 0.65	1440	2.095
413.15 K, w1 = 0.65	1430	1.923
